Results: publication PMC9865645, “The Impact of N^ε-Acryloyllysine Piperazides on the Conformational Dynamics of Transglutaminase 2” (International Journal of Molecular Sciences, 2023)
Like-named read-outs stand apart in the source and are kept apart here.

What was measured:
[1] = design: method as in doi:10.1039/DT9920002039, PMID 1868851; details: cited from earlier work
commercial His6-hTGase 2 [2] = target: T1, commercial His6-hTGase 2 (Homo sapiens, UniProt P21980); assay: fluorescence anisotropy (FA)-based transamidase activity assay, commercial His6-hTGase 2; assay type: biochemical; details: 5 min pre-incubation of enzyme and inhibitor; mean (SEM) of three experiments
T1 construct: purchased Zedira (Darmstadt, Germany) T022, lot 0716a
T1 sequence (P21980 1-687): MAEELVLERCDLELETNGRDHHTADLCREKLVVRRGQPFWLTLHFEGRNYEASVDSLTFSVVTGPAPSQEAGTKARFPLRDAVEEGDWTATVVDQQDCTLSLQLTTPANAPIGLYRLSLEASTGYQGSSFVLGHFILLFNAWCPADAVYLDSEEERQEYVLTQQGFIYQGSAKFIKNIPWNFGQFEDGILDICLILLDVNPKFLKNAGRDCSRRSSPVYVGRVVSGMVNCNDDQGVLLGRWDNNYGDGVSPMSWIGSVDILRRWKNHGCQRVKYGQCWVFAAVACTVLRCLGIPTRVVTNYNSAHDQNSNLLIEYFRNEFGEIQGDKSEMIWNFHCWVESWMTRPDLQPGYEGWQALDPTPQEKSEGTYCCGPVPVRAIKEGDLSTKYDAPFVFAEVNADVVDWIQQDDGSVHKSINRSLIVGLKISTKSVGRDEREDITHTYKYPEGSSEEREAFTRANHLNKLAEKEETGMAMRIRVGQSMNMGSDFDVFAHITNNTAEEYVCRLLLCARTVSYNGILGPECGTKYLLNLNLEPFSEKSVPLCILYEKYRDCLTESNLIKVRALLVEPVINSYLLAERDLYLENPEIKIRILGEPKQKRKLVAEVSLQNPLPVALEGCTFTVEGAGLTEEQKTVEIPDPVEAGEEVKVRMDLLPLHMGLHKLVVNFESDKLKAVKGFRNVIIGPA
Method: (§1) For the analysis of inhibitor 1 on self-produced hTGase 2, 2 µg/mL of the enzyme was used to guarantee comparability with the value reported by Wodtke et al., whereas all other experiments were performed with 5 µg/mL of either commercial or self-produced hTGase 2 (corresponding to 64.1 and 61.6 nM, respectively, when assuming 100% active protein). Parallel and perpendicular fluorescence intensities were measured over 1190 s in 35 s intervals (1) or over 1776 s in 48 s intervals (2, 3) and used to calculate the FA. Data of FA for the first 875 s (1) or 384 s (2, 3) were analyzed by linear regression, with slopes corresponding to enzymatic rates. Rates in the presence of inhibitor were normalized by dividing them by the respective rate in the absence of inhibitor, and normalized rates were analyzed according to Equation (S29) in Supplementary Materials to calculate values of IC50. Data analysis was performed with Microsoft Excel (Microsoft Office Professional Plus 2016, Microsoft® Corporation, USA) and GraphPad Prism version 5.03 or version 6.07 for Windows (GraphPad Software, La Jolla, CA, USA).

[3] = target: T2, in-house produced N-terminally Twin-Strep-tagged hTGase 2 (Homo sapiens, UniProt P21980); assay: fluorescence anisotropy (FA)-based transamidase activity assay, in-house Twin-Strep-tagged hTGase 2; assay type: biochemical; details: 5 min pre-incubation of enzyme and inhibitor; mean (SEM) of three experiments
T2 construct: thrombin cleavage site (N); made in house; host or cells: E. coli BL21(DE3)
T2 sequence (P21980 1-687): T1 sequence (P21980 1-687)
Description: The gene of hTGase 2 (Uniprot ID: P21980) with an N-terminal thrombin cleavage site was cloned into the pPSG-IBA105 vector containing the sequence for an N-terminal Twin-Strep-tag (IBA Lifesciences GmbH, Göttingen, Germany) to obtain the final plasmid pPSG-IBA105/TCS-hTGase 2. The plasmid construct was verified by DNA sequencing (Eurofins Genomics Germany GmbH) and then transformed into E. coli BL21(DE3) by the heat–shock method. hTGase 2-expressing E. coli cells were lysed by lysozyme treatment, and hTGase 2 was purified by affinity chromatography on an ÄKTA purifier UPC 10 FPLC equipped with a Strep-Tactin XT cartridge (GE Healthcare Europe GmbH, Freiburg, Germany). Identity and purity of self-produced hTGase 2 were verified by SDS-PAGE and Western Blot analysis, respectively. Protein concentration was determined according to Bradford. More detailed descriptions of the generation and characterization of the final plasmid construct pPSG-IBA105/TCS-hTGase 2 and the expression, purification, and characterization of the self-produced hTGase 2 protein will be published elsewhere (manuscript in preparation).
as §1

His6-hTGase 2 [4] = target: T3, His6-hTGase 2 (Homo sapiens, UniProt P21980); assay: fluorimetric activity assay (substrate Z-Glu(HMC)-Gly-OH) for kinact/KI; assay type: biochemical; details: mean (SEM) of two to four experiments
T3 construct: purchased Zedira (Darmstadt, Germany) T022, lot 0716a
T3 sequence (P21980 1-687): T1 sequence (P21980 1-687)

hTGase 2 = target: T4, hTGase 2 (Homo sapiens, UniProt P21980); assay: switchSENSE dynamic mode: upward motion (relative inverse slope, friction) of hTGase 2-dsDNA lever; details: 10 µM inhibitor with 1 mM Ca^2+, 0.1% DMSO, then pure TE40; non-directed labeling
T4 construct: purchased Zedira (Darmstadt, Germany) T022, lot 0716a
T4 sequence (P21980 1-687): T1 sequence (P21980 1-687)
Method: Prior to the measurement of the switching kinetics of the differently conjugated hTGase 2, a complementary ssDNA without the enzyme (500 nM) was hybridized to the single-stranded capture strands on the chip electrodes to obtain the reference kinetics of the dsDNA lever. In addition, to determine the impact of CaCl2 and DMSO on the movement of the bare dsDNA lever, and thus on reference kinetics, its switching behavior was investigated in TE40, TE40 + 1 mM CaCl2, TE40 + 1 mM CaCl2 + 1% DMSO or TE40 + 1 mM CaCl2 + 0.1% DMSO.
Then, the dehybridization of the reference lever occurred during a regeneration step followed by the hybridization with an ssDNA-hTGase 2 conjugate (500 nM). Thereafter, the switching kinetics was recorded. […]
The impact on the hydrodynamic drag of the hTGase 2-functionalized lever was investigated under identical conditions for the three irreversible inhibitors 1–3: At first, the switching kinetics of the dsDNA lever and the hTGase 2-dsDNA conjugates were recorded. Secondly, the switching kinetics of the hTGase 2-dsDNA conjugates during and after Ca^2+ exposure were recorded using TE40 + 1 mM CaCl2 or TE40, respectively. […] In this process, the hydrodynamic drag was analyzed during the exposure to 10 µM inhibitor (for 6 min) dissolved in TE40 + 1 mM CaCl2 + 0.1% DMSO and to TE40 afterward. […]

commercial His6-hTGase 2 [5] = target: T1, commercial His6-hTGase 2; design: method as in PMID 29664627; details: 5 min pre-incubation of enzyme and inhibitor; mean (SEM); previously reported; cited from earlier work
His6-hTGase 2 [6] = target: T3, His6-hTGase 2; design: method as in PMID 29664627; details: mean (SEM); previously reported; cited from earlier work

Row | IC50 (commercial His6-hTGase 2 [2]) [nM] | kinact/KI (His6-hTGase 2 [4]) [M⁻¹ s⁻¹] | SMILES | pK value of H2GTP^3− (γP-OH) [1] | pK value of H3GTP^2− (N7^+H) [1] | pK value of HGTP^4− (N1H) [1] | IC50 [3] [nM] | friction (relative inverse slope) after removal of Ca^2+ and inhibitor ("after Ca^2+ + inhibitor") (hTGase 2) | IC50 (commercial His6-hTGase 2 [5]) [nM] | kinact/KI (His6-hTGase 2 [6])
1 |  |  | Nc1nc2c(ncn2[C@@H]2O[C@H](COP(=O)(O)OP(=O)(O)OP(=O)(O)O)[C@@H](O)[C@H]2O)c(=O)[nH]1 [GTP] | 6.5 | 2.9 | 9.6 |  |  |  | 
2 | 280 | 4500 | C=CC(=O)NCCCCC(NC(=O)Cc1ccccc1I)C(=O)N1CCN(c2ccc(C(F)(F)F)nc2)CC1 [Compound 3, N^α-(2-Iodophenylacetyl)-N^ε-acryloyl-L-lysin-4-(2-trifluoromethyl-5-yl)piperazide] |  |  |  | 209 | significantly higher compared to “w/o” and “after Ca^2+” |  | 
3 |  |  | C=CC(=O)NCCCCC(NC(=O)Cc1ccccc1)C(=O)N1CCN(c2cccc(F)n2)CC1 (stereo not shown) [Compound 1] |  |  |  | 135 |  | 108 | 3850 (240) ^e M^−1s^−1
